Tested on: Staphylococcus aureus (clinical isolate)
Test: Fluorescence imaging of coated orthopaedic plates, screws and catheters implanted in a human cadaver ankle after incubation with S. aureus isolate or NaCl
Settings: implants incubated with S. aureus, imaged 24 hours after implantation, excitation 710 nm, emission 800 nm
Excerpt: Orthopaedic plates, screws and catheters were coated with the polymer coating with compositions according to step (g). For example a polymer coating 1 g (i) was coated onto orthopaedic plates, screws and catheters in a continuous process.
First a solution of the polymer prepared in Example 1 g (i) was made by dissolving the polymer coating in water and then the plate and catheter were drawn through the solution of the polymer coating at a rate of 1 to 2 meters/second into an infrared dying oven of approximately 1 meter in length at about 100° C. The objects were completely covered indicating the application of a substantially uniform coating. This process was done according to the standard procedures in U.S. Pat. No. 7,442,205, Stents and methods for preparing stents from wires having hydrogel coating layers thereon. […]
Imaging of the objects implanted according to example 6 was performed 24 hours after implantation using an intra-operative clinical multispectral fluorescence camera (T3-imaging system, SurgOptix BV, Groningen, The Netherlands) and the IVIS Spectrum (excitation: 710 nm, emission: 800 nm, acquisition time 5 s, binning 4, F-stop 2, FOV 21.2).
The results obtained from the IVIS Spectrum and IVIS Lumina II were analyzed with Living Image 4.2. […] Signal intensity was determined by drawing regions of interests (ROI's) and measuring average counts in these regions. […]

SMILES: CC1(C)C(=CC=C2CCCC(C=CC3=[N+](CCCCCC(=O)[O-])c4ccc(S(=O)(=O)[O-])cc4C3(C)C)=C2Oc2ccc(S(=O)(=O)[O-])cc2)N(CCCCS(=O)(=O)[O-])c2ccc(S(=O)(=O)[O-])cc21.[Na+].[Na+].[Na+].[Na+] [IRDye 800CW]
- near infrared signal (net counts, background corrected): 1×10^5±4.2×10^4 counts
